From patent US6476059B1, “Use of polycyclic 2-aminothiazole systems for the treatment of obesity” (Aventis Pharma Deutschland GmbH, priority 1999, dated 2002)

How the values were obtained:
male NMRI mice = test: Anorectic effect: cumulative condensed milk consumption after gavage; assay type: in vivo; conditions: oral dose 50 mg/kg by gavage, feed withdrawn for 24 hours; for Reduction in the cumulative milk consumption as % of the controls: compared with untreated control animals; for cumulative milk consumption by the treated animals: condensed milk offered 30 minutes after administration, consumption determined every half hour for 7 hours
Protocol: The anorectic effect was tested on male NMRI mice. After withdrawal of feed for 24 hours, the test product was administered by gavage. The animals were housed singly and had free access to drinking water and, 30 minutes after administration of the product, they were offered condensed milk. The consumption of condensed milk was determined, and the general behavior of the animals was inspected, every half hour for 7 hours. The measured milk consumption was compared with that of untreated control animals.

| SMILES | melting point [°C] | Reduction in the cumulative milk consumption as % of the controls (male NMRI mice) [%] | cumulative milk consumption by the treated animals (male NMRI mice) |
| --- | --- | --- | --- |
| CS(=O)(=O)c1ccc2c(c1)-c1nc(N)sc1C2.Cl | > 230 |  |  |
| Br.CN(C)c1nc2c(s1)Cc1cc(C#N)ccc1-2 [Example 2, 2-Dimethylamino-8H-indeno[1,2-d]thiazole-6-carbonitrile hydrobromide] | > 300 | 85 | 5/0.76 ml |
| N#CNc1nc2c(s1)Cc1cc(Cl)ccc1-2 [Example 4, 6-Chloro-8H-indeno[1,2-d]thiazol-2-yl-cyanamide] | 225 |  |  |
| O=CNc1nc2c(s1)Cc1cc(Cl)ccc1-2 [Example 6, N-(6-chloro-8H-indeno[1,2-d]thiazol-2-yl)formamide] | 295 | 77 | 5/0.96 ml |
| N=C(Nc1ccccc1)Nc1nc2c(s1)Cc1cc(Cl)ccc1-2 [Example 7, N-(6-Chloro-8H-indeno[1,2-d]thiazol-2-yl)-N′-phenylguanidine] | 210 |  |  |

Second part, led by results:

| melting point [°C] | SMILES | Reduction in the cumulative milk consumption as % of the controls (male NMRI mice) [%] | cumulative milk consumption by the treated animals (male NMRI mice) |
| --- | --- | --- | --- |
| 258 | CNc1nc2c(s1)Cc1cc(OCC(F)(F)C(F)(F)F)ccc1-2.Cl [Example 18, Methyl[6-(2,2,3,3,3-pentafluoropropoxy)-8H-indeno[1,2-d]thiazol-2-yl]amine hydrochloride] | 90 | 5/0.38 ml |
| 225 | CNc1nc2c(s1)Cc1cc(-c3cccnc3)ccc1-2.Cl [Example 26, Methyl(6-pyridin-3-yl-8H-indeno[1,2-d]thiazol-2-yl)amine hydrochloride] | 77 | 5/0.68 ml |
| 174 | Cc1cccc(Oc2ccc3c(c2)Cc2sc(N)nc2-3)c1.Cl [Example 27, 6-m-Tolyloxy-8H-indeno[1,2-d]thiazol-2-yl-amine hydrochloride] | 79 | 5/0.74 ml |
